Measured values reported in patent US20190239509A1, “METHOD OF CONTROLLING PLANTS” (SYNGENTA PARTICIPATIONS AG, priority 2016, published 2019).

What was measured:
Type in all cases: in vivo
[1] = test system: HORVW (Hordeum vulgare—barley); test: B1 glasshouse post-emergence herbicidal activity, barley; conditions: after 14 days, 100=total damage, 0=no damage
Experimental: (§1) Seeds of a variety of test species HORVW (Hordeum vulgare—barley), ABUTH (Abutilon theophrasti), AMARE (Amaranthus retroflexus) and ECHCG (Echinochloa crus-galli) were sown in standard soil in pots. After cultivation for 10 days cultivation under controlled conditions in a glasshouse (at 24/16° C., day/night; 14 hours light; 65% humidity), the plants were sprayed with an aqueous spray solution derived from the formulation of the technical active ingredient in 0.6 ml acetone and 45 ml formulation solution containing 10.6% Emulsogen EL (Registry number 61791-12-6), 42.2% N-methyl pyrrolidone, 42.2% dipropylene glycol monomethyl ether (CAS RN 34590-94-8) and 0.2% X-77 (CAS RN 11097-66-8).
(§2) The test plants were then grown in a glasshouse under controlled conditions in a glasshouse (at 24/16° C., day/night; 14 hours light; 65% humidity) and watered twice daily. After 14 days, the test was evaluated (100=total damage to plant; 0=no damage to plant).

[2] = test system: ECHCG (Echinochloa crus-galli); test: B1 glasshouse post-emergence herbicidal activity, ECHCG; conditions: after 14 days, 100=total damage, 0=no damage
Experimental: as §1, §2

[3] = test system: ABUTH (Abutilon theophrasti); test: B1 glasshouse post-emergence herbicidal activity, ABUTH; conditions: after 14 days, 100=total damage, 0=no damage
Experimental: as §1, §2

[4] = test system: AMARE (Amaranthus retroflexus); test: B1 glasshouse post-emergence herbicidal activity, AMARE; conditions: after 14 days, 100=total damage, 0=no damage
Experimental: as §1, §2

[5] = test system: Amaranthus viridis (AMAVI); test: B2 drilled field trial Brazil, post-emergence, AMAVI; conditions: 100 g ai/ha, 100=total damage, 0=no damage
Experimental: (§3) Seeds of a variety of test species were used in drilled field trials to look at the control of important weed species present in corn crops as well as the effect on soybean (a volunteer crop in corn). Trials were carried out in Brazil in the summer season.
(§4) Plot size was 10-12 m^2, and two replicates were carried out per treatment. Plants were treated post-emergence at the 4 leaf stage. Fungicides and insecticides were used as necessary for plant health. The test was evaluated at 7 and 30 days after application (Amaranthus viridis (AMAVI), Bidens pilosa (BIDPI), Euphorbia heterophylla (EPPHL)) and 9 and 37 days after application (Brachiaria plantaginea (BRAPL) and soybean (Glycine max GLXMA) with 100=total damage to plant and 0=no damage to plant.
(§5) Expected results were calculated using the Colby Formula.

[6] = test system: Bidens pilosa (BIDPI); test: B2 drilled field trial Brazil, post-emergence, BIDPI; conditions: 100 g ai/ha, 100=total damage, 0=no damage
Experimental: as §3, §4, §5

[7] = test system: Euphorbia heterophylla (EPPHL); test: B2 drilled field trial Brazil, post-emergence, EPPHL; conditions: 100 g ai/ha, 100=total damage, 0=no damage
Experimental: as §3, §4, §5

[8] = test system: Brachiaria plantaginea (BRAPL); test: B2 drilled field trial Brazil, post-emergence, BRAPL; conditions: 100 g ai/ha, 100=total damage, 0=no damage
Experimental: as §3, §4, §5

[9] = test system: soybean (Glycine max GLXMA); test: B2 drilled field trial Brazil, post-emergence, soybean; conditions: 100 g ai/ha, 100=total damage, 0=no damage
Experimental: as §3, §4, §5

COc1ccc(-n2nc(C)cc(C(=O)C3C(=O)C4CCC(C4)C3=O)c2=O)cc1OC (stereo not drawn) [Compound 2.1, 3-[2-(3,4-dimethoxyphenyl)-6-methyl-3-oxo-pyridazine-4-carbonyl]bicyclo[3.2.1]octane-2,4-dione] gave an HORVW ([1]; Rate 125 g/ha) of 0, an HORVW ([1]; Rate 250 g/ha) of 0 and an ECHCG ([2]; Rate 125 g/ha) of 100. The ECHCG ([2]; Rate 250 g/ha) was 100, the ABUTH ([3]; Rate 125 g/ha) was 100 and the ABUTH ([3]; Rate 250 g/ha) was 100. For the same compound, the AMARE ([4]; Rate 125 g/ha) was 100 and the AMARE ([4]; Rate 250 g/ha) was 100.
COc1ccc(-n2nc(C)cc(C(=O)C3C(=O)CC(C)CC3=O)c2=O)cc1OC (stereo not drawn) [Compound 2.2] gave an HORVW ([1]; Rate 125 g/ha) of 0, an HORVW ([1]; Rate 250 g/ha) of 0 and an ECHCG ([2]; Rate 125 g/ha) of 100. The ECHCG ([2]; Rate 250 g/ha) was 100, the ABUTH ([3]; Rate 125 g/ha) was 100 and the ABUTH ([3]; Rate 250 g/ha) was 100. It also gave an AMARE ([4]; Rate 125 g/ha) of 100 and an AMARE ([4]; Rate 250 g/ha) of 100.
Compound COc1ccc(-n2nc(C)cc(C(=O)C3C(=O)CCCC3=O)c2=O)cc1OC [Compound 2.3, 2-[2-(3,4-Dimethoxyphenyl)-6-methyl-3-oxo-pyridazine-4-carbonyl]cyclohexane-1,3-dione] has an HORVW ([1]; Rate 125 g/ha) of 0, an HORVW ([1]; Rate 250 g/ha) of 0 and an ECHCG ([2]; Rate 125 g/ha) of 100. It also gave an ECHCG ([2]; Rate 250 g/ha) of 100, an ABUTH ([3]; Rate 125 g/ha) of 100 and an ABUTH ([3]; Rate 250 g/ha) of 100. For the same compound, the AMARE ([4]; Rate 125 g/ha) was 100, the AMARE ([4]; Rate 250 g/ha) was 100 and the “AMAVI 7DAA Observed” value ([5]; 7 days after application) was 65. The “AMAVI 30 DAA Observed” value ([5]; 30 days after application) was 70, the “BIDPI 7DAA Observed” value ([6]; 7 days after application) was 45 and the “BIDPI 30 DAA Observed” value ([6]; 30 days after application) was 43. For the same compound, the “EPPHL 7DAA Observed” value ([7]; 7 days after application) was 58, the “EPPHL 30 DAA Observed” value ([7]; 30 days after application) was 42 and the “BRAPL 9DAA Observed” value ([8]; 9 days after application) was 78. The “BRAPL 37 DAA Observed” value ([8]; 37 days after application) was 37, the “GLXMA 9DAA Observed” value ([9]; 9 days after application) was 55 and the “GLXMA 37 DAA Observed” value ([9]; 37 days after application) was 100.
With COc1ccc(-n2nc(C)cc(C(=O)C3C(=O)CC(C)(C)CC3=O)c2=O)cc1OC [Compound 2.4] the HORVW ([1]; Rate 125 g/ha) was 0, the HORVW ([1]; Rate 250 g/ha) was 10 and the ECHCG ([2]; Rate 125 g/ha) was 100. It also gave an ECHCG ([2]; Rate 250 g/ha) of 100, an ABUTH ([3]; Rate 125 g/ha) of 100 and an ABUTH ([3]; Rate 250 g/ha) of 100. The AMARE ([4]; Rate 125 g/ha) was 100 and the AMARE ([4]; Rate 250 g/ha) was 100.
Compound COc1ccc(-n2nc(C)cc(C(=O)C3C(=O)C(C)(C)C(=O)C(C)(C)C3=O)c2=O)cc1OC [Compound 2.5] has an HORVW ([1]; Rate 125 g/ha) of 0, an HORVW ([1]; Rate 250 g/ha) of 0 and an ECHCG ([2]; Rate 125 g/ha) of 90. For the same compound, the ECHCG ([2]; Rate 250 g/ha) was 90, the ABUTH ([3]; Rate 125 g/ha) was 100 and the ABUTH ([3]; Rate 250 g/ha) was 100. The AMARE ([4]; Rate 125 g/ha) was 100 and the AMARE ([4]; Rate 250 g/ha) was 100.
COc1ccc(-n2nc(C3CC3)cc(C(=O)C3C(=O)C4CCC(C4)C3=O)c2=O)cc1OC (stereo not drawn) [Compound 2.9] was tested, and the HORVW ([1]; Rate 125 g/ha) was 0, the HORVW ([1]; Rate 250 g/ha) was 10 and the ECHCG ([2]; Rate 125 g/ha) was 100. For the same compound, the ECHCG ([2]; Rate 250 g/ha) was 100, the ABUTH ([3]; Rate 125 g/ha) was 100 and the ABUTH ([3]; Rate 250 g/ha) was 100. For the same compound, the AMARE ([4]; Rate 125 g/ha) was 90 and the AMARE ([4]; Rate 250 g/ha) was 100.
COc1ccc(-n2nc(C3CC3)cc(C(=O)C3C(=O)C(C)(C)C(=O)C(C)(C)C3=O)c2=O)cc1OC [Compound 2.11, 6-[6-cyclopropyl-2-(3,4-dimethoxyphenyl)-3-oxo-pyridazine-4-carbonyl]-2,2,4,4-tetramethyl-cyclohexane-1,3,5-trione] showed an HORVW ([1]; Rate 125 g/ha) of 0, an HORVW ([1]; Rate 250 g/ha) of 0 and an ECHCG ([2]; Rate 125 g/ha) of 100. It also gave an ECHCG ([2]; Rate 250 g/ha) of 100, an ABUTH ([3]; Rate 125 g/ha) of 100 and an ABUTH ([3]; Rate 250 g/ha) of 100. It also gave an AMARE ([4]; Rate 125 g/ha) of 100 and an AMARE ([4]; Rate 250 g/ha) of 100.
